# Laboratory results reported in patent US5395947A, “Platinum(II) complex and processes for preparing the same” (Sunkyong Industries, Ltd., priority 1991, dated 1995).
# What was measured:
# [1] = Test for water solubility; type: physicochemical; conditions: water
# Excerpt: 3. Test for water solubility
# A standard plot of UV absorbance(220 nm) vs. concentration was made; and employed to determine water-solubility.
# The mixture was then passed through a 0.45 micron disposable membrane filter before dilution and UV measurement.
# [2] = system: murine leukemia L1210 cells; test: Growth inhibition test on cultured murine leukemia L1210 cells; type: cell-based; conditions: 48 hours, 37° C., Trypan blue viability
# Procedure, shortened: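 L1210 cells (1×10^5) exposed to graded compound concentrations in RPMI 1640 with 10% fetal calf serum, 37° C, 5% CO2, 48 h. Viability by 0.17% Trypan blue staining, relative to untreated control cells.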
# murine leukemia L1210 = test: Antitumor activity test on murine leukemia L1210 in vivo; parameters: species or system male BDF1 mice; conditions: days 1, 5, 9
# Procedure, shortened: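 Intraperitoneal L1210 model: 1×10^6 cells inoculated i.p. into 6-week-old male BDF1 mice (21±3 g) on day 0, seven per group. Compounds in 0.5% CMC given i.p. on days 1, 5 and 9; vehicle-only controls. T/C % from mean survival time of treated over control.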
# ICR mice = test: Acute toxicity test; type: in vivo; parameters: Lethality: unit not given here; conditions: for Lethality: 10080 min
# Experimental: 7-week-old ICR mice(male: 34±2 g; female: 31±2 g) were fed with solid food and water under the condition of 23±1° C. temperature and 65±5% humidity before the test.
# Each treatment group consisted of 6 mice. The test compounds were administered intraperitoneally.
# For 7 days after the administration, the appearance and the fate of the tested animals were recorded. The dead animals were subjected to autopsy and their visible pathological changes were observed. Their viscerals were stored in 10% formalin solution.
smiles,measurement,setting,value
"CCC1(CC)OC2C[NH2+][Pt-2]3([NH2+]CC2O1)[O]CC(=O)[O]3 [Example 8, (glycolato-O,O')[(4R,5R)-4,5-bis(aminomethyl)-2,2-diethyl-1,3-dioxolane]platinum(II)]",Solubility in water,[1],> 30 mg/mL
same,IC50 (concentration required for 50% inhibition of growth),[2],0.06 µg/mL
same,T/C (%),murine leukemia L1210; 3.1 mg/kg i.p.,154%
same,T/C (%),murine leukemia L1210; 6.2 mg/kg i.p.,198%
same,T/C (%),murine leukemia L1210; 12.5 mg/kg i.p.,245%
same,T/C (%),murine leukemia L1210; 25 mg/kg i.p.,toxic
same,T/C (%),murine leukemia L1210; 50 mg/kg i.p.,toxic
same,Number of dead mice for 7 days,"ICR mice; female, 41.3 mg/kg i.p.",0/6
same,"Number of dead mice, 1st day","ICR mice; female, 41.3 mg/kg i.p.",0/6
same,Lethality,"ICR mice; female, 41.3 mg/kg i.p.",0.0
same,Number of dead mice for 7 days,"ICR mice; female, 54.9 mg/kg i.p.",3/6
same,"Number of dead mice, 1st day","ICR mice; female, 54.9 mg/kg i.p.",0/6
same,"Number of dead mice, 3rd day","ICR mice; female, 54.9 mg/kg i.p.",1/6
same,"Number of dead mice, 4th day","ICR mice; female, 54.9 mg/kg i.p.",2/5
same,Lethality,"ICR mice; female, 54.9 mg/kg i.p.",50.0
same,Number of dead mice for 7 days,"ICR mice; female, 71.4 mg/kg i.p.",5/6
same,"Number of dead mice, 1st day","ICR mice; female, 71.4 mg/kg i.p.",0/6
same,"Number of dead mice, 4th day","ICR mice; female, 71.4 mg/kg i.p.",2/6
same,"Number of dead mice, 5th day","ICR mice; female, 71.4 mg/kg i.p.",3/4
same,Lethality,"ICR mice; female, 71.4 mg/kg i.p.",83.7
same,Number of dead mice for 7 days,"ICR mice; female, 91.8 mg/kg i.p.",6/6
same,"Number of dead mice, 1st day","ICR mice; female, 91.8 mg/kg i.p.",0/6
same,"Number of dead mice, 2nd day","ICR mice; female, 91.8 mg/kg i.p.",1/6
same,"Number of dead mice, 3rd day","ICR mice; female, 91.8 mg/kg i.p.",3/5
same,"Number of dead mice, 4th day","ICR mice; female, 91.8 mg/kg i.p.",2/2
same,Lethality,"ICR mice; female, 91.8 mg/kg i.p.",100.0
same,Number of dead mice for 7 days,"ICR mice; male, 41.3 mg/kg i.p.",0/6
same,"Number of dead mice, 1st day","ICR mice; male, 41.3 mg/kg i.p.",0/6
same,Lethality,"ICR mice; male, 41.3 mg/kg i.p.",0.0
same,Number of dead mice for 7 days,"ICR mice; male, 54.9 mg/kg i.p.",4/6
same,"Number of dead mice, 1st day","ICR mice; male, 54.9 mg/kg i.p.",0/6
same,"Number of dead mice, 3rd day","ICR mice; male, 54.9 mg/kg i.p.",2/6
same,"Number of dead mice, 4th day","ICR mice; male, 54.9 mg/kg i.p.",2/4
same,Lethality,"ICR mice; male, 54.9 mg/kg i.p.",66.7
same,Number of dead mice for 7 days,"ICR mice; male, 71.4 mg/kg i.p.",5/6
same,"Number of dead mice, 1st day","ICR mice; male, 71.4 mg/kg i.p.",0/6
same,"Number of dead mice, 3rd day","ICR mice; male, 71.4 mg/kg i.p.",1/6
same,"Number of dead mice, 4th day","ICR mice; male, 71.4 mg/kg i.p.",4/5
same,Lethality,"ICR mice; male, 71.4 mg/kg i.p.",83.3
same,Number of dead mice for 7 days,"ICR mice; male, 91.8 mg/kg i.p.",6/6
same,"Number of dead mice, 1st day","ICR mice; male, 91.8 mg/kg i.p.",0/6
same,"Number of dead mice, 2nd day","ICR mice; male, 91.8 mg/kg i.p.",2/6
same,"Number of dead mice, 3rd day","ICR mice; male, 91.8 mg/kg i.p.",4/4
same,Lethality,"ICR mice; male, 91.8 mg/kg i.p.",100.0
"CCC1(C)OC2C[NH2+][Pt-2]3([NH2+]CC2O1)[O]CC(=O)[O]3 [Example 9, (glycolato-O,O')[(4R,5R)-4,5-bis(aminomethyl)-2-ethyl-2-methyl-1,3-dioxolane]platinum(II)]",Solubility in water,[1],11.6 mg/mL
same,IC50 (concentration required for 50% inhibition of growth),[2],0.08 µg/mL
same,T/C (%),murine leukemia L1210; 3.1 mg/kg i.p.,148%
same,T/C (%),murine leukemia L1210; 6.2 mg/kg i.p.,187%
same,T/C (%),murine leukemia L1210; 12.5 mg/kg i.p.,231%
same,T/C (%),murine leukemia L1210; 25 mg/kg i.p.,toxic
same,T/C (%),murine leukemia L1210; 50 mg/kg i.p.,toxic
same,Number of dead mice for 7 days,"ICR mice; female, 41.3 mg/kg i.p.",2/6
same,"Number of dead mice, 1st day","ICR mice; female, 41.3 mg/kg i.p.",0/6
same,"Number of dead mice, 4th day","ICR mice; female, 41.3 mg/kg i.p.",2/6
same,Lethality,"ICR mice; female, 41.3 mg/kg i.p.",0.0
same,Number of dead mice for 7 days,"ICR mice; female, 54.9 mg/kg i.p.",4/6
same,"Number of dead mice, 1st day","ICR mice; female, 54.9 mg/kg i.p.",0/6
same,"Number of dead mice, 3rd day","ICR mice; female, 54.9 mg/kg i.p.",1/6
same,"Number of dead mice, 4th day","ICR mice; female, 54.9 mg/kg i.p.",3/5
same,Lethality,"ICR mice; female, 54.9 mg/kg i.p.",50.0
same,Number of dead mice for 7 days,"ICR mice; female, 71.4 mg/kg i.p.",5/6
same,"Number of dead mice, 1st day","ICR mice; female, 71.4 mg/kg i.p.",0/6
same,"Number of dead mice, 3rd day","ICR mice; female, 71.4 mg/kg i.p.",1/6
same,"Number of dead mice, 4th day","ICR mice; female, 71.4 mg/kg i.p.",3/5
same,"Number of dead mice, 5th day","ICR mice; female, 71.4 mg/kg i.p.",1/2
same,Lethality,"ICR mice; female, 71.4 mg/kg i.p.",83.7
same,Number of dead mice for 7 days,"ICR mice; female, 91.8 mg/kg i.p.",6/6
same,"Number of dead mice, 1st day","ICR mice; female, 91.8 mg/kg i.p.",0/6
same,"Number of dead mice, 3rd day","ICR mice; female, 91.8 mg/kg i.p.",2/6
same,"Number of dead mice, 4th day","ICR mice; female, 91.8 mg/kg i.p.",4/4
same,Lethality,"ICR mice; female, 91.8 mg/kg i.p.",100.0
same,Number of dead mice for 7 days,"ICR mice; male, 41.3 mg/kg i.p.",0/6
same,"Number of dead mice, 1st day","ICR mice; male, 41.3 mg/kg i.p.",0/6
same,"Number of dead mice, 4th day","ICR mice; male, 41.3 mg/kg i.p.",2/6
same,"Number of dead mice, 5th day","ICR mice; male, 41.3 mg/kg i.p.",1/4
same,Lethality,"ICR mice; male, 41.3 mg/kg i.p.",0.0
same,Number of dead mice for 7 days,"ICR mice; male, 54.9 mg/kg i.p.",4/6
same,"Number of dead mice, 1st day","ICR mice; male, 54.9 mg/kg i.p.",0/6
same,"Number of dead mice, 4th day","ICR mice; male, 54.9 mg/kg i.p.",2/6
same,"Number of dead mice, 5th day","ICR mice; male, 54.9 mg/kg i.p.",2/4
same,Lethality,"ICR mice; male, 54.9 mg/kg i.p.",66.7
same,Number of dead mice for 7 days,"ICR mice; male, 71.4 mg/kg i.p.",5/6
same,"Number of dead mice, 1st day","ICR mice; male, 71.4 mg/kg i.p.",0/6
same,"Number of dead mice, 4th day","ICR mice; male, 71.4 mg/kg i.p.",1/6
same,"Number of dead mice, 5th day","ICR mice; male, 71.4 mg/kg i.p.",2/5
same,"Number of dead mice, 6th day","ICR mice; male, 71.4 mg/kg i.p.",2/3
same,Lethality,"ICR mice; male, 71.4 mg/kg i.p.",83.3
same,Number of dead mice for 7 days,"ICR mice; male, 91.8 mg/kg i.p.",6/6
same,"Number of dead mice, 1st day","ICR mice; male, 91.8 mg/kg i.p.",0/6
same,"Number of dead mice, 2nd day","ICR mice; male, 91.8 mg/kg i.p.",1/6
same,"Number of dead mice, 3rd day","ICR mice; male, 91.8 mg/kg i.p.",4/5
same,"Number of dead mice, 4th day","ICR mice; male, 91.8 mg/kg i.p.",1/1
same,Lethality,"ICR mice; male, 91.8 mg/kg i.p.",100.0
